Patent US10730829B2, “Compound exhibiting anti-oxidative or anti-inflammatory activity” (University-Industry Cooperation Group of Kyung Hee …, priority 2016, dated 2020)

System: Raw 264.7 cells
Assay: Inhibition of LDH release from Ox-LDL-oxidised Raw 264.7 cells (WST absorbance)
Assay type: cell-based
Conditions: Ox-LDL 100 μg/mL, compared to the positive control group (LDH release rate 30%)
Method: To confirm the anti-oxidative effect of the compounds according to the present invention, the amount of lactate dehydrogenase (LDH), which is a material released from cells killed or damaged by oxidation, was measured by measuring the absorbance using water soluble tetrazolium salt (WST) to measure cytotoxicity. Specifically, Raw 264.7 cells, in which oxidation was induced with 100 μg/mL of oxidized low-density lipoprotein (Ox-LDL), were treated with test materials (2 kinds of comparative groups and 2 kinds of experimental groups) at 1 μM and 10 μM concentrations, respectively, and their ability to inhibit LDH release (i.e., a standard indicator of anti-oxidative effects) was confirmed. As reference, the LDH release rate in the negative control group in which no treatment was made was 7% and the LDH release rate in the positive control group treated with only Ox-LDL was 30%.

## CC(=O)NC(CSCCCSCC(NC(C)=O)C(=O)O)C(=O)O (centres unmarked) [Newcompound-2, 2,14-dioxo-6,10-dithia-3,13-diazapentadecan-4,12-dicarboxylic acid]
1 μM
  decrease of LDH release rate: 11%
10 μM
  decrease of LDH release rate: 20%

## C=CCSC[C@H](N)C(=O)O [SAC, S-allyl-L-cysteine]
1 μM
  decrease of LDH release rate: 7%
10 μM
  decrease of LDH release rate: 16%

## CC(=O)N[C@@H](CS)C(=O)O [NAC, N-acetyl-L-cysteine]
1 μM
  decrease of LDH release rate: 6%
10 μM
  decrease of LDH release rate: 13%

## CC(=O)NC(CSCCCSCC(N)C(=O)O)C(=O)O (centres unmarked) [Newcompound-1, 2-acetamido-3-(3-(2-amino-2-carboxyethylthio)propylthio)propanoic acid]
1 μM
  decrease of LDH release rate: 12%
10 μM
  decrease of LDH release rate: 21%
